We go through 9 compounds from patent US20090075951A1, “Methods and Reagents for the Treatment of Inflammatory Disorders” (CombinatoRx, Inc., priority 2003, published 2009).

Test [1] relates to cytokine secretion. Nature of the test: Suppression of cytokine secretion in vitro by individual tricyclic compounds.
Procedure: Individual tricyclic compounds were tested for their ability to suppress cytokine secretion in vitro.
In test [2] the test system is TNFα secretion from PMA/ionomycin stimulated white blood cells from human buffy coat. Nature of the test: TNFα secretion assay, PMA/ionomycin stimulation. The note with it: for inhibition at 0.01 µM: read-out: TNFα PI percent inhibition, 0.01 μM.
Procedure: (§1) Various concentrations of each test compound were added at the time of stimulation. […] After the plate was washed with 0.1% Tween 20/PBS, an HRP-luminescent substrate was added to each well and light intensity measured using a LJL Analyst plate luminometer.
For test [3], the system named is TNFα secretion from LPS stimulated white blood cells from human buffy coat. Nature of the test: TNFα secretion assay, LPS stimulation. The note with it: for percent inhibition of TNFα secretion: LPS.
Procedure: as §1
[4] abbreviates: read-out: IL-1β LPS percent inhibition.
[5] abbreviates: read-out: IL-2 PI percent inhibition.
[6] abbreviates: read-out: TNFα PI percent inhibition, […].
Where [7] appears, read: Homo sapiens, read-out: TNFα LPS percent inhibition, […].
Setting [8] is: Amoxapine μM: 32.00, 16.00, 8.00, 4.00, 2.00, 1.00, 0.50, 0.25, 0.13, 0.06, 0.03, 0.02.
[9] abbreviates: Clomipramine μM: 57.00, 28.50, 14.25, 7.13, 3.56, 1.78, 0.89, 0.45, 0.22, 0.11, 0.06, 0.03.
Where [10] appears, read: Nortriptyline μM by row r6-r17: 67.00, 33.50, 16.75, 8.38, 4.19, 2.09, 1.05, 0.52, 0.26, 0.13, 0.07, 0.03.
Where [11] appears, read: Protriptyline μM by row r6-r17: 67.00, 33.50, 16.75, 8.38, 4.19, 2.09, 1.05, 0.52, 0.26, 0.13, 0.07, 0.03.

Values joined by “and” are separate entries in the source; they are usually repeats but may differ in a detail not shown here. Equal values may be shown once. Read-outs that look alike come from different tables or passages of the source.

As usually defined, the inhibition is the change of the read-out against control, counted positive when it falls. As to `CN(C)CCC=C1c2ccccc2CCc2ccccc21` [Amitriptyline, amitriptyline], the inhibition at 0.03 µM in test [1] (setting [4]) was determined as 0%; in test [1] (setting [5]), 0%; in test [2] (read-out: TNFα PI percent inhibition, 0.03 μM) it was 0%; in test [3] (Homo sapiens, read-out: TNFα LPS percent inhibition, 0.03 μM), 0%. For the same compound, the inhibition at 0.06 µM in test [1] (setting [4]) stood at 0%; in test [1] (setting [5]), 2%; in test [2] (read-out: TNFα PI percent inhibition, 0.06 μM), 0%; in test [3] (Homo sapiens, read-out: TNFα LPS percent inhibition, 0.06 μM) it was 0%. For the same compound, the inhibition at 0.5 µM in test [1] (setting [4]) worked out at 0%; in test [1] (setting [5]), 0%; in test [2] (read-out: TNFα PI percent inhibition, 0.50 μM) it was 0%; in test [3] (Homo sapiens, read-out: TNFα LPS percent inhibition, 0.50 μM), 0%. For the same compound, the inhibition at 1 µM in test [1] (setting [4]) is 0%; in test [1] (setting [5]), 0%; in test [2] (read-out: TNFα PI percent inhibition, 1.00 μM) it was 0%; in test [3] (Homo sapiens, read-out: TNFα LPS percent inhibition, 1.00 μM), 0%. Moreover, the inhibition at 2 µM in test [1] (setting [4]) is 0%; in test [1] (setting [5]) it was 0%; in test [2] (read-out: TNFα PI percent inhibition, 2.00 μM) it was 0%; in test [3] (Homo sapiens, read-out: TNFα LPS percent inhibition, 2.00 μM), 0%. Besides, the inhibition at 4 µM in test [1] (setting [4]) worked out at 11%; in test [1] (setting [5]), 4%; in test [2] (read-out: TNFα PI percent inhibition, 4.00 μM), 5%; in test [3] (Homo sapiens, read-out: TNFα LPS percent inhibition, 4.00 μM), 0%. Moreover, the inhibition at 8 µM was 7% in test [1] (setting [4]); 7% in test [1] (setting [5]); 21% in test [2] (read-out: TNFα PI percent inhibition, 8.00 μM); 0% in test [3] (Homo sapiens, read-out: TNFα LPS percent inhibition, 8.00 μM). In addition, the inhibition at 16 µM was 0% in test [1] (setting [4]), 33% in test [1] (setting [5]), 35% in test [2] (setting [6]) and 0% in test [3] (setting [7]). Moreover, the inhibition at 32 µM in test [1] (setting [4]) is 0%; in test [1] (setting [5]), 62%; in test [2] (setting [6]), 66%; in test [3] (setting [7]), 18%. Further, the inhibition at 64 µM in test [1] (setting [4]) is 0%; in test [1] (setting [5]) it was 82%; in test [2] (setting [6]) it was 81%; in test [3] (setting [7]) it was 45%.
As for `Clc1ccc2c(c1)C(N1CCNCC1)=Nc1ccccc1O2` [Amoxapine, amoxapine], in test [1] (setting [8]), the “IL-1β LPS, percent inhibition relative to untreated controls” value was 5% and 0%; the “IL-2 PI, percent inhibition relative to untreated controls” value is on record as 0%; the “TNFα LPS, percent inhibition relative to untreated controls” value worked out at 0%; the “TNFα PI, percent inhibition relative to untreated controls” value was 4% and 0%. In addition, in test [3] (Prednisolone 0.5 μM, Amoxapine μM r5-r13: 0,0.25,0.5,1,2,4,8,16,32), the “percent inhibition of TNFα secretion” value came to 68.1%.
Consider `CN(C)CCCN1c2ccccc2CCc2ccc(Cl)cc21` [Clomipramine, clomipramine], for which, in test [1] (setting [9]), the “IL-1β LPS, percent inhibition relative to untreated controls” value is 3% and 0%; the “IL-2 PI, percent inhibition relative to untreated controls” value was 5% and 0%; the “TNFα LPS, percent inhibition relative to untreated controls” value stood at 0%; the “TNFα PI, percent inhibition relative to untreated controls” value is 0%. For the same compound, the “percent inhibition of TNFα secretion” value in test [3] (Prednisolone 1 μM, Clomipramine μM r5-r13: 0,0.45,0.89,1.8,3.6,7.1,14,28,57) was 69.3%.
As to `CN1CCN(C2=Nc3cc(F)ccc3Cc3ccccc32)CC1` [Fluperlapine, fluperlapine], the inhibition at 0.01 µM in test [1] (setting [5]) was 6%; in test [2], 0%. In addition, the inhibition at 0.04 µM in test [1] (setting [5]) is 8%; in test [2] (read-out: TNFα PI percent inhibition, 0.04 μM), 0%. Besides, the inhibition at 0.4 µM came to 7% in test [1] (setting [5]) and 0% in test [2] (read-out: TNFα PI percent inhibition, 0.40 μM). In addition, the inhibition at 32 µM is 1% in test [1] (setting [5]) and 25% in test [2] (setting [6]).
In the case of `Clc1ccc2c(c1)N=C(N1CCNCC1)c1ccccc1N2` [Norclozapine, norclozapine], in test [3] (Prednisolone 0 μM, Norclozapine μM r5-r13: 0,0.21,0.41,0.83,1.7,3.3,6.6,13,27), the “percent inhibition of TNFα secretion” value is reported as −17%.
For `CNCCC=C1c2ccccc2CCc2ccccc21` [Nortriptyline, nortriptyline], in test [1] (setting [10]), the “IL-1β LPS, percent inhibition relative to untreated controls” value is 3% and 0%; the “IL-2 PI, percent inhibition relative to untreated controls” value is reported as 0%; the “TNFα LPS, percent inhibition relative to untreated controls” value was 1% and 0%; the “TNFα PI, percent inhibition relative to untreated controls” value turned out to be 2%.
Regarding `CNCCCC1c2ccccc2C=Cc2ccccc21` [Protriptyline, protriptyline], in test [1] (setting [11]), the “IL-1β LPS, percent inhibition relative to untreated controls” value came to 0%; the “IL-2 PI, percent inhibition relative to untreated controls” value was determined as 0%; the “TNFα LPS, percent inhibition relative to untreated controls” value is 2% and 0%; the “TNFα PI, percent inhibition relative to untreated controls” value is reported as 0%.
In the case of `OCCOCCN1CCN(C2=Nc3ccccc3Sc3ccccc32)CC1` [Quetiapine fumurate], the inhibition at 0.01 µM in test [1] (setting [5]) was 0%; in test [2] it was 7%. Further, the inhibition at 0.02 µM in test [1] (setting [5]) turned out to be 0%; in test [2] (read-out: TNFα PI percent inhibition, 0.02 μM), 0%. In addition, the inhibition at 0.05 µM is 0% in test [1] (setting [5]) and 0% in test [2] (read-out: TNFα PI percent inhibition, 0.05 μM). Moreover, the inhibition at 11 µM in test [1] (setting [5]) turned out to be 0%; in test [2] (setting [6]) it was 13%.
Consider `C[C@]12C=CC(=O)C=C1CC[C@H]1[C@@H]3C[C@@H](O)[C@](O)(C(=O)CO)[C@@]3(C)C[C@H](O)[C@@]12F` [Triamcinolone, triamcinolone], for which the inhibition at […] in test [2] (read-out: inhibition of TNFα secretion, Triamcinolone 38 nM, Desipramine nM: 0, 50, 200, 799, 3197, 13000) turned out to be 16%; in test [2] (read-out: inhibition of TNFα secretion, Triamcinolone 38 nM, Imipramine nM: 0, 99, 394, 1578, 6311, 25000) it was 16.1%; in test [2] (read-out: inhibition of TNFα secretion, Triamcinolone 38 nM, Nortriptyline nM: 0, 52, 208, 834, 3336, 13000), 7.21%; in test [2] (read-out: percent inhibition of TNFα secretion, Triamcinolone 38 nM, Amitriptyline nM: 0, 50, 199, 796, 3186, 13000), 10.8%; in test [2] (read-out: percent inhibition of TNFα secretion, Triamcinolone 38 nM, Amoxapine nM: 0, 12, 50, 199, 797, 3187), 3.52%; in test [2] (read-out: percent inhibition of TNFα secretion, Triamcinolone 38 nM, Clomipramine nM: 0, 45, 178, 712, 2848, 11000) it was 12.5%. The inhibition at 2.434 µM in test [2] (read-out: inhibition of TNFα secretion, Triamcinolone 2434 nM, Desipramine nM: 0, 50, 200, 799, 3197, 13000) came to 47.1%; in test [2] (read-out: inhibition of TNFα secretion, Triamcinolone 2434 nM, Imipramine nM: 0, 99, 394, 1578, 6311, 25000), 47.2%; in test [2] (read-out: inhibition of TNFα secretion, Triamcinolone 2434 nM, Nortriptyline nM: 0, 52, 208, 834, 3336, 13000) it was 33.7%; in test [2] (read-out: inhibition of TNFα secretion, Triamcinolone 2434 nM, Protriptyline nM: 0, 52, 208, 834, 3336, 13000), 48.5%; in test [2] (read-out: percent inhibition of TNFα secretion, Triamcinolone 2434 nM, Amitriptyline nM: 0, 50, 199, 796, 3186, 13000) it was 43.8%; in test [2] (read-out: percent inhibition of TNFα secretion, Triamcinolone 2434 nM, Amoxapine nM: 0, 12, 50, 199, 797, 3187), 36.1%. Besides, the inhibition at 2.434 µM in test [2] (read-out: percent inhibition of TNFα secretion, Triamcinolone 2434 nM, Clomipramine nM: 0, 45, 178, 712, 2848, 11000) was determined as 46.9%.
